{"source": "paper PMC4291223", "about": "“Inhibitors of CLK Protein Kinases Suppress Cell Growth and Induce Apoptosis by Modulating Pre-mRNA Splicing” (PLoS ONE, 2015)", "origin": "cited, not measured here", "system": "CLK1 and CLK4", "design": "method as in PMID 15010457", "details": "cited from earlier work", "data": [{"compound": "CCN1/C(=C/C(C)=O)Sc2ccc(OC)cc21", "note": "[TG003]", "values": [{"measurement": "CLK selectivity", "value": "selectively inhibits CLK1 and CLK4"}]}]}
